Blank lines part the entries; values can stand above or below the molecule they belong to. Positions of bridges follow the written chain, without caps; N, C: chain ends. Non-standard residues stand in square brackets, D forms with d. Residues, ends and D or L forms follow the SMILES beside them. *: point of attachment. X1 = N[C@@H](CO)C(=O)N[C@@H](Cc1ccccc1)C(=O)NCCCCN*; NMeT = CN[C@H](C(=O)O)[C@@H](C)O
Legend:
[1] = tested on: Splenocyte; test: Cytoprotective activity against anti-CD3/CD28 stimulated mouse splenocyte assessed as rescue of cell proliferation at 100 nM incubated for 72 hrs by CFSE staining based flow cytometric analysis; format: functional
[2] = biological target: T1, V-type immunoglobulin domain-containing suppressor of T-cell activation (Homo sapiens, UniProt Q9H7M9); test: Binding affinity to recombinant human His-tagged VISTA ECD incubated for 2 hrs by TR-FRET assay
T1 sequence (Q9H7M9 whole entry): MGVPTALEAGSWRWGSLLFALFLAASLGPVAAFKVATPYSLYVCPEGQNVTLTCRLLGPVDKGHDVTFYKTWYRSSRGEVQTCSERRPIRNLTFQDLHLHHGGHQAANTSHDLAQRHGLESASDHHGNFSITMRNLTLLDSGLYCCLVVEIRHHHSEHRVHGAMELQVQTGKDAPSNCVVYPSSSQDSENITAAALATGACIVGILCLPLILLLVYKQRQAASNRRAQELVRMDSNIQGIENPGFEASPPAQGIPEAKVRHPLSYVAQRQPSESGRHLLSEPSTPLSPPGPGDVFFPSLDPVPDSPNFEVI

[3] = biological target: T1, V-type immunoglobulin domain-containing suppressor of T-cell activation; test: Binding affinity to recombinant human VISTA ECD incubated for 2 hrs by ELISA assay
[4] = tested on: Splenocyte; test: Cytoprotective activity against anti-CD3/CD28 stimulated mouse splenocyte co-cultured with MDA-MB-231 cells overexpressing PD-L1 assessed as rescue of cell proliferation at 100 nM incubated for 72 hrs by CFSE staining based flow cytometric analysis relative to control; format: functional
[5] = biological target: Programmed cell death 1 ligand 1 (Homo sapiens, UniProt Q9NZQ7); test: Inhibition of His-tagged human recombinant PD-L1 incubated for 15 mins by LANCE Ultra TR-FRET assay
Chain of Programmed cell death 1 ligand 1 (Q9NZQ7 whole entry, the tested form may be a part): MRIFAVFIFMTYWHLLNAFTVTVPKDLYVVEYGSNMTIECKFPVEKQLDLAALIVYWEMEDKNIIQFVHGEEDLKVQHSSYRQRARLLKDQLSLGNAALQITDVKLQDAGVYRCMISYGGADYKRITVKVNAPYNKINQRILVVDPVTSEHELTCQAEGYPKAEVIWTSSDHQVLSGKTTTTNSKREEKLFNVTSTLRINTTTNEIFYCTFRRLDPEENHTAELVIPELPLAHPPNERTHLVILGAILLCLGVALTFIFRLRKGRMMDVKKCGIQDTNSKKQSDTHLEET

[6] = biological target: T1, V-type immunoglobulin domain-containing suppressor of T-cell activation; test: Inhibition of VISTA (unknown origin) incubated for 15 mins by LANCE Ultra TR-FRET assay
[7] = tested on: Splenocyte; test: Cytoprotective activity against anti-CD3/CD28 stimulated mouse splenocyte assessed as rescue of PD-L1 stimulated inhibition of proliferation at 100 nM incubated for 72 hrs by CFSE staining based flow cytometric analysis; design: scale not given: the % may be the effect or the level left
[8] = Half life in mouse liver microsomes at 1 uM by LC-MS/MS analysis; format: ADME, Microsome
[9] = tested on: B16-F10; test: Antimetastatic activity against mouse B16-F10 cells implanted in C57BL/6 mouse assessed as decrease in lung metastasis at 5 mg/kg,sc and measured after 14 days; format: functional; design: scale not given: the % may be the effect or the level left; settings: time 14 day

Structure (SMILES): NCCCC[C@H](NC(=O)N[C@@H](CC(N)=O)C(=O)NNC(=O)[C@@H](N)CO)C(=O)O
Activity [1]: 87%

IC50 [2]: 4.8 µM
IC50 [3]: 9.7 µM
Structure (SMILES): CN(C)c1n/c(=N\Cc2ccco2)ss1

EC50 [6]: 0.0829 µM
Structure (SMILES): C[C@H](O)[C@H](NC(=O)N[C@@H](CC(N)=O)c1nc([C@@H](N)CO)no1)C(=O)O
Activity [4]: 89%
EC50 [5]: 0.0661 µM
Activity [1]: 97%
Activity [7]: >70%

half-life at 1 µM [8]: > 1.5 h
Structure (SMILES): CC[C@H](C)[C@H](NC(=O)[C@H](CCC(N)=O)NC(=O)[C@H](C)NC(=O)[C@H](CCCCN)NC(=O)[C@@H]1CCCN1C(=O)[C@H](C)NC(=O)[C@H](CC(C)C)NC(=O)[C@H](CCC(N)=O)NC(=O)[C@@H](NC(=O)[C@@H](NC(=O)[C@H](CCCNC(=N)N)NC(=O)[C@H](Cc1ccccc1)NC(=O)[C@H](CCCCN[C@@H](Cc1ccccc1)C(=O)N[C@@H](CO)C(=O)N[C@@H](CCC(=O)O)C(=O)N[C@@H](CO)C(=O)N[C@H](C(=O)N[C@@H](CC(N)=O)C(=O)N[C@@H](CO)C(=O)O)[C@@H](C)O)NC(=O)[C@H](Cc1ccccc1)NC(=O)[C@H](CO)NC(=O)[C@H](CCC(=O)O)NC(=O)[C@H](CO)NC(=O)[C@@H](NC(=O)[C@H](CC(N)=O)NC(=O)[C@@H](N)CO)[C@@H](C)O)C(C)C)[C@@H](C)O)C(=O)N[C@@H](CCCCN)C(=O)N[C@@H](CCC(=O)O)C(=O)O

Structure (SMILES): C[C@H](O)[C@@H]1NC(=O)N[C@@H](CC(N)=O)C(=O)NNC(=O)[C@H](CO)NC(=O)COCCOCCNC1=O
Activity [1]: 87%

Structure (SMILES): C[C@H](O)[C@H](NC(=O)N[C@@H](CC(N)=O)c1nc([C@@H](N)CCCCN)no1)C(=O)O
Activity [1]: 50%
Activity [7]: 96%

Structure (SMILES): CCCNC(=O)CC[C@H](NC(=O)N[C@H](C(=O)O)[C@H](C)O)c1nc([C@@H](N)CO)no1
Activity [1]: <50%
Activity [7]: 119%

Structure (SMILES): C[C@H](O)[C@H](NC(=O)N[C@@H](CC(N)=O)c1nc(C2(N)CCCCC2)no1)C(=O)O
Activity [1]: 86%

Structure (SMILES): C[C@@H](O)[C@H]1C(=O)N[C@@H](CO)C(=O)N[C@H](C(=O)N[C@@H](CO)C(=O)N[C@@H](Cc2ccccc2)C(N)=O)CCCCNC(=O)CC[C@H](NC(=O)[C@@H](N)CO)C(=O)N1C (H-SE[NMeT]SKSF-NH2; lactam 2-5)
Activity [1]: 82%

Structure (SMILES): C[C@@H](O)[C@@H]1NC(=O)[C@@H](NC(=O)[C@@H](N)CO)CCCCNC(=O)CC[C@@H](C(=O)N[C@@H](CO)C(=O)N[C@@H](Cc2ccccc2)C(N)=O)NC(=O)[C@H](CO)NC1=O (H-SKTSESF-NH2; lactam 2-5)
Activity [4]: 60%

Structure (SMILES): C[C@@H](O)[C@H](NC(=O)[C@H](CCC(N)=O)NC(=O)[C@@H](N)CO)C(=O)N[C@@H](CO)C(=O)N[C@@H](CCC(=O)NCCCCNC(=O)[C@H](Cc1ccccc1)NC(=O)[C@@H](N)CO)C(N)=O (H-SQTSE(X1)-NH2)
Activity [9]: 64%

Source: ChEMBL document CHEMBL5233205, “VISTA inhibitors in cancer immunotherapy: a short perspective on recent progresses” (RSC Med Chem, 2021)
